US11214803B2, “Modulators of YAP1 expression” (Ionis Pharmaceuticals, Inc., priority 2019, dated 2022)
Strand notation (5' to 3'): a small letter for the sugar, then the base; units joined by * are phosphorothioate-linked, units joined directly phosphodiester-linked; [ ] holds rarer units or linkages, { } end groups; capitals alone tell only the bases. k = constrained ethyl (cEt); [5mC] = 5-methylcytosine; d = 2'-deoxy (DNA)

Tested on: Yap1 mRNA
Experiment: Antisense inhibition of human Yap1 in A-431 cells by cEt gapmers, single dose (Example 2, RTS4814)
Format: cell-based
Experimental: Modified oligonucleotides were designed to target a Yap1 nucleic acid and were tested for their effect on Yap1 mRNA level in vitro. The modified oligonucleotides were tested in a series of experiments that had similar culture conditions. Cultured A-431 cells at a density of 5,000 cells per well were treated using free uptake with 2,000 nM of modified oligonucleotide. After a treatment period of approximately 48 hours, RNA was isolated from the cells and Yap1 mRNA levels were measured by quantitative real-time RTPCR. Human primer probe set RTS4814 was used to measure mRNA levels. Yap1 mRNA levels were normalized to total RNA content, as measured by RIBOGREEN®. Results are presented in the tables below as percent control of the amount of Yap1 mRNA relative to untreated control cells (% UTC). The modified oligonucleotides with percent control values marked with an asterisk (*) target the amplicon region of the primer probe set. Additional assays may be used to measure the potency and efficacy of the modified oligonucleotides targeting the amplicon region.
The newly designed modified oligonucleotides in the Tables below were designed as 3-10-3 cEt gapmers. The gapmers are 16 nucleosides in length, wherein the central gap segment comprises of ten 2′-deoxynucleosides and is flanked by wing segments on the 5′ direction and the 3′ direction comprising three nucleosides each. Each nucleoside in the 5′ wing segment and each nucleoside in the 3′ wing segment has a cEt sugar modification. The internucleoside linkages throughout each gapmer are phosphorothioate (P═S) linkages. All cytosine residues throughout each gapmer are 5-methylcytosines.
“Start site” indicates the 5′-most nucleoside to which the gapmer is targeted in the human gene sequence. “Stop site” indicates the 3′-most nucleoside to which the gapmer is targeted human gene sequence. […] Activity ofthe modified oligonucleotide may be defined in a different experiment.

[1] = Table 24, Yap1 mRNA as percent of untreated control, 3-10-3 cEt gapmers targeting SEQ ID NO.: 1, and 2
[2] = Table 32, Yap1 mRNA, percent of untreated control, 3-10-3 cEt gapmers targeting SEQ ID NO.: 1, and 2
[3] = Table 23, Yap1 mRNA as percent of untreated control, 3-10-3 cEt gapmers, single dose
[4] = Table 18, A-431 cells, 5,000 cells per well, free uptake, 2,000 nM modified oligonucleotide, approx. 48 hours, RTS4814, normalized to RIBOGREEN, Yap1 mRNA as percent of untreated control
[5] = Table 6, A-431 cells, 5,000 cells per well, free uptake, 2,000 nM modified oligonucleotide, approx. 48 hours, RTS4814, normalized to RIBOGREEN, Yap1 mRNA relative to untreated control cells
[6] = Table 20, Yap1 mRNA, percent of untreated control, 3-10-3 cEt gapmers targeting SEQ ID NO.: 1 and 2
[7] = A-431 cells, 5,000 cells per well, free uptake, 2,000 nM modified oligonucleotide, approx. 48 hours, RTS4814, normalized to RIBOGREEN, Table 4, asterisk (*) = targets amplicon region of primer probe set
[8] = Table 22, Yap1 mRNA as percent of untreated control, 3-10-3 cEt gapmers, single dose
[9] = Table 5, A-431 cells, 5,000 cells per well, free uptake, 2,000 nM modified oligonucleotide, approx. 48 hours, RTS4814, normalized to RIBOGREEN, Yap1 mRNA relative to untreated control cells
[10] = Yap1 mRNA as percent of untreated control, A-431 cells, 3-10-3 cEt gapmers targeting SEQ ID NO.: 1, and 2, Table 30
[11] = Table 21, Yap1 mRNA, percent of untreated control, 3-10-3 cEt gapmers targeting SEQ ID NO.: 1 and 2
[12] = Table 19, A-431 cells, 5,000 cells per well, free uptake, 2,000 nM modified oligonucleotide, approx. 48 hours, RTS4814, normalized to RIBOGREEN, Yap1 mRNA as percent of untreated control

In the case of “1074794 (k[5mC]*kA*kA*dA*dT*d[5mC]*dA*dA*dT*dG*dT*dG*d[5mC]*kT*k[5mC]*k[5mC]; antisense) [Compound 1074794]”, the “YAP1 (% UTC)” value [1] is reported as 5 % UTC.
With “1075506 (k[5mC]*kA*kT*dA*dA*dA*dG*dG*dT*dG*dA*d[5mC]*dA*kG*k[5mC]*k[5mC]; antisense) [compound 1075506]” the “YAP1 (% UTC)” value [2] was 66 % UTC.
For “1074729 (antisense kA*k[5mC]*kA*d[5mC]*dT*dG*dA*dG*dG*dT*dA*dT*dA*kA*k[5mC]*kT) [Compound 1074729]”, the “YAP1 (% UTC)” value [3] was 9 % UTC.
“1076178 (k[5mC]*k[5mC]*kT*dG*dA*dA*dA*dT*dA*d[5mC]*dA*dG*dG*kT*kG*kT; antisense) [compound 1076178]” was tested, and the “YAP1 (% UTC)” value [2] was 100 % UTC.
With “1076073 (k[5mC]*kT*kT*dT*dA*dA*dG*dG*dT*d[5mC]*dT*dA*dG*kT*kT*kA; antisense) [Compound 1076073]” the “YAP1 (% UTC)” value [3] was 47 % UTC.
With “1074148 (antisense kG*kT*kG*dG*dA*dG*dA*dA*dG*d[5mC]*dG*dG*d[5mC]*kG*kA*k[5mC]) [Compound 1074148]” the “YAP1 (% UTC)” value [4] was 66 % UTC.
In the case of “716483 (k[5mC]*kA*kA*dA*dA*d[5mC]*d[5mC]*dT*dT*dA*dT*dA*dG*kT*kA*kT; antisense) [Compound 716483]”, the “YAP1 (% UTC)” value [5] is reported as 159 % UTC.
In the case of “1074662 (antisense kG*kG*kT*dA*dG*dA*dA*dT*dT*dT*d[5mC]*dA*dT*kT*kA*k[5mC]) [Compound 1074662]”, the “YAP1 (% UTC)” value [6] is reported as 30 % UTC.
“716577 (kT*k[5mC]*kT*dG*dT*d[5mC]*dA*dG*dT*dT*dA*dT*d[5mC]*k[5mC]*kT*kA; antisense) [Compound 716577]” was tested, and the “YAP1 (% UTC)” value [7] was 21 % UTC.
With “1074194 (antisense k[5mC]*k[5mC]*kG*dG*dG*dT*d[5mC]*d[5mC]*dG*dG*dA*d[5mC]*dG*kG*k[5mC]*kG) [compound 1074194]” the “YAP1 (% UTC)” value [2] was 57 % UTC.
In the case of “1075524 (kT*kA*kA*dT*dT*dA*dA*dG*dG*dG*d[5mC]*d[5mC]*d[5mC]*kA*k[5mC]*kA; antisense) [Compound 1075524]”, the “YAP1 (% UTC)” value [4] is reported as 71 % UTC.
With “1075784 (kA*kT*kT*dT*dT*dA*dT*dA*dG*dG*dG*d[5mC]*d[5mC]*kA*kT*kT; antisense) [Compound 1075784]” the “YAP1 (% UTC)” value [8] was 3 % UTC.
“716473 (k[5mC]*kT*kA*dT*dA*dA*dA*dG*d[5mC]*dT*dT*dA*dT*kT*kT*k[5mC]; antisense) [Compound 716473]” was tested, and the “YAP1 (% UTC)” value [9] was 104 % UTC.
With “716538 (antisense kT*k[5mC]*kT*dG*dA*dA*dA*d[5mC]*dT*d[5mC]*d[5mC]*dA*dA*kA*kT*k[5mC]) [Compound 716538]” the “YAP1 (% UTC)” value [7] was 77 % UTC.
With “1074224 (antisense k[5mC]*kA*kG*dA*dG*dA*d[5mC]*dT*dA*d[5mC]*dT*d[5mC]*d[5mC]*kA*kG*kT) [compound 1074224]” the “YAP1 (% UTC)” value [10] was 16 % UTC.
With “716409 (k[5mC]*kA*kG*dG*dA*dA*dG*dT*d[5mC]*dA*dT*d[5mC]*dT*kG*kG*kG; antisense) [Compound 716409]” the “YAP1 (% UTC)” value [7] was 99 % UTC.
For “1074795 (k[5mC]*k[5mC]*kA*dA*dA*dT*d[5mC]*dA*dA*dT*dG*dT*dG*k[5mC]*kT*k[5mC]; antisense) [Compound 1074795]”, the “YAP1 (% UTC)” value (Table 25, Yap1 mRNA as percent of untreated control, 3-10-3 cEt gapmers targeting SEQ ID NO.: 1, and 2) was 4 % UTC.
“1075367 (k[5mC]*kA*kT*dT*dA*d[5mC]*dT*dT*dA*dG*dG*dG*d[5mC]*kT*kT*kA; antisense) [Compound 1075367]” was tested, and the “YAP1 (% UTC)” value [11] was 12 % UTC.
With “1076196 (kT*kA*kT*d[5mC]*dA*dA*dG*dG*dG*dA*dA*dT*dT*kA*kT*kT; antisense) [Compound 1076196]” the “YAP1 (% UTC)” value [4] was 113 % UTC.
For “1076036 (k[5mC]*kG*kT*dA*dA*dT*dT*dA*dG*dA*dA*dA*d[5mC]*kT*kT*kG; antisense) [Compound 1076036]”, the “YAP1 (% UTC)” value [4] was 19 % UTC.
For “1075111 (antisense kT*kA*kG*dG*dA*dA*dT*dA*dT*dG*dG*dG*dT*kA*kG*kT) [Compound 1075111]”, the “YAP1 (% UTC)” value [11] was 5 % UTC.
With “716546 (k[5mC]*kA*k[5mC]*dA*dA*dT*dT*dA*dA*dT*dT*dA*d[5mC]*kT*kG*kT; antisense) [Compound 716546]” the “YAP1 (% UTC)” value [5] was 103 % UTC.
With “1074184 (antisense kG*k[5mC]*k[5mC]*dG*dG*dT*dT*dG*dA*dG*dG*d[5mC]*dG*kG*k[5mC]*kG) [Compound 1074184]” the “YAP1 (% UTC)” value [8] was 100 % UTC.
In the case of “1074666 (antisense k[5mC]*kA*kT*dA*dT*dA*d[5mC]*d[5mC]*d[5mC]*dA*dA*dT*dT*kT*kT*kG) [Compound 1074666]”, the “YAP1 (% UTC)” value [1] is reported as 16 % UTC.
With “1075845 (kG*kT*kG*dG*dA*dA*dA*dA*dG*dT*dA*dT*dG*kA*kT*k[5mC]; antisense) [Compound 1075845]” the “YAP1 (% UTC)” value [12] was 19 % UTC.
“1075690 (k[5mC]*kG*kT*dT*dA*dA*d[5mC]*dA*dA*d[5mC]*dT*dA*dT*kA*k[5mC]*kA; antisense) [Compound 1075690]” was tested, and the “YAP1 (% UTC)” value [1] was 33 % UTC.
In the case of “1075826 (kT*kA*kG*dG*dG*dA*dA*dA*dA*d[5mC]*d[5mC]*dA*dT*kA*kG*k[5mC]; antisense) [compound 1075826]”, the “YAP1 (% UTC)” value [2] is reported as 23 % UTC.
“1075304 (k[5mC]*kA*k[5mC]*dG*dG*dG*dT*dA*d[5mC]*d[5mC]*dA*dG*dA*kA*kA*kA; antisense) [Compound 1075304]” was tested, and the “YAP1 (% UTC)” value [8] was 50 % UTC.
For “1075048 (antisense kG*kT*kA*dA*dA*dA*dT*dT*dA*dG*dA*d[5mC]*dT*k[5mC]*k[5mC]*k[5mC]) [Compound 1075048]”, the “YAP1 (% UTC)” value [8] was 4 % UTC.
With “716437 (k[5mC]*k[5mC]*kA*dG*dT*dA*dA*dA*dT*d[5mC]*dA*dT*dG*kT*kT*kT; antisense) [Compound 716437]” the “YAP1 (% UTC)” value [9] was 41 % UTC.
In the case of “1075753 (k[5mC]*kT*kA*dG*dA*dA*d[5mC]*d[5mC]*dT*dT*dT*dT*d[5mC]*k[5mC]*kA*kG; antisense) [Compound 1075753]”, the “YAP1 (% UTC)” value [3] is reported as 65 % UTC.
With “1075462 (antisense kG*kT*kT*dT*dA*dT*dA*dG*dA*d[5mC]*dA*dA*dG*kT*k[5mC]*kA) [Compound 1075462]” the “YAP1 (% UTC)” value [6] was 15 % UTC.
For “716439 (kG*kT*kA*dT*dT*dT*dA*dA*dT*dA*dT*d[5mC]*dA*kG*kA*kT; antisense) [Compound 716439]”, the “YAP1 (% UTC)” value [7] was 77 % UTC.
With “716350 (k[5mC]*kT*k[5mC]*dG*dG*dA*d[5mC]*d[5mC]*dT*dG*d[5mC]*dG*dG*k[5mC]*kG*k[5mC]; antisense) [Compound 716350]” the “YAP1 (% UTC)” value [9] was 99 % UTC.
For “1075345 (antisense kG*kT*kA*dA*d[5mC]*dT*dA*dA*dA*dA*dG*dG*dG*kA*kG*kT) [compound 1075345]”, the “YAP1 (% UTC)” value (Yap1 mRNA as percent of untreated control, A-431 cells, 3-10-3 cEt gapmers targeting SEQ ID NO.: 1, and 2, Table 31) was 29 % UTC.
In the case of “1074640 (antisense kG*k[5mC]*k[5mC]*dA*dA*dA*dA*dT*dA*d[5mC]*dT*dT*dA*kG*kA*kT) [compound 1074640]”, the “YAP1 (% UTC)” value [10] is reported as 26 % UTC.
With “1074821 (kG*kA*kA*dA*dA*dG*dT*dG*dT*dT*dA*dA*dG*k[5mC]*kA*k[5mC]; antisense) [Compound 1074821]” the “YAP1 (% UTC)” value [12] was 18 % UTC.
“1074532 (antisense kG*kA*kA*d[5mC]*dA*d[5mC]*dT*dA*dA*dA*d[5mC]*dT*dA*k[5mC]*kT*kT) [Compound 1074532]” was tested, and the “YAP1 (% UTC)” value [4] was 59 % UTC.
For “1074372 (antisense k[5mC]*kT*kT*dT*dG*dG*dT*dT*dG*dA*dT*dA*dG*kT*kA*kT) [Compound 1074372]”, the “YAP1 (% UTC)” value [4] was 10 % UTC.
With “1075655 (k[5mC]*kT*kA*dT*dT*dA*dA*dG*dA*d[5mC]*dG*dA*dA*kT*k[5mC]*k[5mC]; antisense) [Compound 1075655]” the “YAP1 (% UTC)” value [11] was 38 % UTC.
